US9399788B2, “Method for inspecting susceptibility of bacteria or fungi to antimicrobial drug and system for use in the same” (priority 2011, dated 2016)
Values after ≈ are worked out from the molar mass of the structure shown.

How the values were obtained:
[1] = tested on: #2 strain of Pseudomonas aeruginosa (multi-drug resistant strain); assay: MIC by method using micro-device 1 (microscope observation of growth and shape in flow channel); format: cell-based; settings: for MIC: Pseudomonas aeruginosa, read-out: MIC (minimum inhibitory concentration)
Procedure: Thus, antimicrobial drug solutions were prepared.
Pseudomonas aeruginosa was pre-cultured at 37° C. for 24 hours using a Mueller-Hinton Agar (Becton, Dickinson and Company) plate. A colony was suspended in a Mueller-Hinton broth so as to have MacFarland=0.5 (OD600=0.132). As Pseudomonas aeruginosa, multi-drug resistant strains #2 and #5 (available from BML) and an S1 strain (susceptibility strain, available from BML) were used.
The antimicrobial drug solution obtained in the (2) above and the culture solution obtained in the (3) above were mixed at a volume ratio of 1 9, and 1 μL of a resultant mixture was injected into each inlet of a micro-device 1. As a control, sterile water as a substitute for the antimicrobial drug solution and the culture solution were mixed at a volume ratio of 1:9, and 1 μL of a resultant mixture was injected into an inlet of the micro-device 1. Then, the micro-device 1 was placed in a petri dish, and the petri dish was placed in an airtight container. Kimwipe (Trade Mark) containing water was placed in each of the petri dish and the airtight container. The airtight container was placed in an incubator at 37° C. and incubated for 3 hours. The relative humidity of each of the airtight container and the petri dish was 97%.
The micro-device 1 was taken out of the airtight container, and an increase or decrease in the amount of bacteria and a change in shape relative to the control in an observation area was checked by a microscope, and the MIC (minimum inhibitory concentration) was determined.

[2] = tested on: #2 strain of Pseudomonas aeruginosa (multi-drug resistant strain); assay: MIC by broth microdilution method according to the CLSI standards (standard method); format: cell-based
[3] = method using the micro-device, 37° C., 3 hours incubation

Row | Compound | MIC [1, 3] [µg/mL] | MIC ([2]; Pseudomonas aeruginosa, standard method (broth microdilution, CLSI), read-out: MIC (minimum inhibitory concentration)) [µg/mL] | determination based on the break point of CLSI ([1]; MIC by method using the micro-device) | MIC (minimum inhibitory concentration) [1, 3] [µg/mL] | determination based on the break point of CLSI ([2]; MIC by standard method) | MIC (minimum inhibitory concentration) ([2]; standard method (broth microdilution, CLSI)) [µg/mL]
1 | O=C(O)c1cn(C2CC2)c2cc(N3CCNCC3)c(F)cc2c1=O [CPFX, Ciprofloxacin] | ≥ 4 | – | – | – | – | –
2 | NCC[C@H](O)C(=O)N[C@@H]1C[C@H](N)[C@@H](O[C@H]2O[C@H](CN)[C@@H](O)[C@H](O)[C@H]2O)[C@H](O)[C@H]1O[C@H]1O[C@H](CO)[C@@H](O)[C@H](N)[C@H]1O [AMK, Amikacin] | ≥ 32 | 64 (≈ 109 µM) | – | – | – | –
3 | Imipenem/Cilastatin [IPM] | – | – | Resistance (R) | 16 | Resistance (R) | 32
